Experimental data taken from patent US20090088380A1, “GHRH ANALOGS AND THERAPEUTIC USES THEREOF” (priority 2007, published 2009).
Non-standard residues stand in square brackets, D forms with d. Residues, ends and D or L forms follow the SMILES beside them.

How the values were obtained:
[1] = tested on: malnourished subjects with CKD; assay: Phase II CKD: hormones (TSH, free thyroxin, testosterone, oestradiol); type: in vivo, human; details: ITT
Procedure: A blood sample was taken at screening for analysis of TSH and free thyroxin. […] The hormones testosterone (nmol/L) and oestradiol (nmol/L) were measured at baseline and on Day 28 because those could be affected by GH and could lead to secondary changes in body composition. Samples were analysed locally.

[2] = tested on: malnourished subjects with CKD; assay: Phase II CKD: anthropometry; type: in vivo, human; details: ITT
Procedure: Height (cm) was measured only at the screening visit. Anthrompometry was measured at every visit from baseline to follow-up. Anthropometric measurements included weight, skinfold thicknesses and arm circumference. Weight (kg) was measured using a high performance scale. Subjects were asked to stand on the scale with minimal clothing, no shoes, and with even weight on both feet. Skinfold thickness (mm) was measured by using Harpenden Skinfold Callipers at 4 sites: biceps, triceps, suprailiacal and subscapular. Arm circumference (cm) was measured using a tape measure that is flexible, inelastic and metric. The site measured was marked, and the tape was not to be too tight or too loose, and to lie flat on the skin, and be horizontal. Bioimpedance measurements were made to measure body composition at every visit from baseline to Day 28. The bioimpedance scale (RJL Systems) was used. Resistance, reactance and the phase angle were recorded.

[3] = tested on: malnourished subjects with CKD; assay: Phase II CKD: abnormal findings on physical examination; type: in vivo, human; details: safety analysis set
Text: There were no body systems in which there was a trend towards change in physical examination. Any physical examination findings after the screening visit were reported as AEs.

[4] = In vitro proteolysis assay in human serum; type: in vitro ADME
Procedure: Proteolysis was stopped by adding 800 μl of ice-cold stop buffer (potassium-phosphate buffer, acidified to pH 0.8 with trifluoroacetic acid (TFA) and boiling 5 min (rat serum only). After centrifugation (12000 g, 5 min, 4° C.) (rat serum only), serum-peptide mixtures were passed through a conditioned Sep-Pak C-18 cartridge to extract native GHRH or a GHRH analog residual concentrations from serum proteins. The native GHRH or the analog was eluted in 2 ml of 50% acetonitrile-0.01% TFA/50% 0.01% aqueous TFA. 200 μl of extracted peptide, representing 1 μg of GHRH or analog at time 0, was quantified by analytical HPLC, using one μ-Bondapak C18 column (10 μm particle size, 0.39×15 cm) (rat serum) or two C18 columns in series (human serum and plasma) and a binary solvent system composed of NaClO4 0.01 M, pH 2.5 and acetonitrile. A linear gradient from 30 to 60% acetonitrile over 45 min (rat serum) or 30 to 50% (human serum and plasma) was used. Elution of intact peptide was monitored at 214 nm and residual concentration determined by assessment of peak surface areas.

[5] = Day 0, listed as GHRH(1-29)NH2 synthetic analog
[6] = Day 28, listed as GHRH(1-29)NH2 synthetic analog

CC[C@H](C)[C@H](NC(=O)[C@H](C)NC(=O)[C@H](CC(=O)O)NC(=O)[C@@H](C)NC(=O)[C@@H](N)Cc1ccc(O)cc1)C(=O)N[C@@H](Cc1ccccc1)C(=O)N[C@H](C(=O)N[C@@H](CC(N)=O)C(=O)N[C@@H](CO)C(=O)N[C@H](Cc1ccc(O)cc1)C(=O)N[C@@H](CCCNC(=N)N)C(=O)N[C@@H](CCCCN)C(=O)N[C@H](C(=O)N[C@@H](CC(C)C)C(=O)N[C@H](C)C(=O)N[C@@H](CCC(N)=O)C(=O)N[C@@H](CC(C)C)C(=O)N[C@@H](CO)C(=O)N[C@@H](C)C(=O)N[C@@H](CCCNC(=N)N)C(=O)N[C@@H](CCCCN)C(=O)N[C@@H](CCCCN)C(=O)N[C@@H](CC(C)C)C(=O)N[C@@H](CCC(N)=O)C(=O)N[C@@H](CC(=O)O)C(=O)N[C@H](C(=O)N[C@@H](CCSC)C(=O)N[C@@H](CO)C(=O)N[C@@H](CCCNC(=N)N)C(N)=O)[C@@H](C)CC)C(C)C)[C@@H](C)O [GHRH analog #5, [D-Ala^2, D-Tyr^10, D-Ala^15, Lys^22] hGHRH(1-29)-NH2] (H-Y[dA]DAIFTNS[dY]RKVL[dA]QLSARKKLQDIMSR-NH2)
Oestradiol: mean (SD) ([1]; Day 0): 30.400 (23.333) pg/mL
Testosterone: mean (SD) ([1]; Day 0): 1.550 (1.974) ng/mL
Oestradiol: mean (SD) [1, 5]: 30.400 pg/mL
Testosterone: mean (SD) [1, 5]: 1.550 ng/mL
Oestradiol: mean (SD) ([1]; Day 28): 16.281 (10.896) pg/mL
Testosterone: mean (SD) ([1]; Day 28): 1.032 (1.327) ng/mL
Oestradiol: mean (SD) [1, 6]: 16.281 pg/mL
Testosterone: mean (SD) [1, 6]: 1.032 ng/mL
Arm circumference: mean (SD) ([2]; Baseline): 26.35 (5.42) cm
Body weight: mean (SD) ([2]; Baseline): 62.84 (9.98) kg
Skinfold thickness biceps: median ([2]; Baseline): 5.1 mm
Skinfold thickness subscapular: median ([2]; Baseline): 8.0 mm
Skinfold thickness suprailiacal: median ([2]; Baseline): 7.0 mm
Skinfold thickness triceps: median ([2]; Baseline): 12.0 mm
Arm circumference: mean (SD) ([2]; Day 28): 27.33 (4.81) cm
Body weight: mean (SD) ([2]; Day 28): 63.21 (10.45) kg
Skinfold thickness biceps: median ([2]; Day 28): 4.1 mm
Skinfold thickness subscapular: median ([2]; Day 28): 8.6 mm
Skinfold thickness suprailiacal: median ([2]; Day 28): 7.3 mm
Skinfold thickness triceps: median ([2]; Day 28): 13.3 mm
Arm circumference: adjusted difference ([2]; vs placebo): 0.33 cm
Body weight: adjusted difference ([2]; vs placebo): 0.96 kg
Skinfold thickness triceps: ratio ([2]; vs placebo): 1.066
Fat free mass (kg): mean (SD) ([2]; anthropometry, Baseline): 46.64 (9.13) kg
Fat mass (%): median ([2]; anthropometry, Baseline): 25.4%
Fat mass (kg): median ([2]; anthropometry, Baseline): 15.8 kg
Fat free mass (kg): mean (SD) ([2]; anthropometry, Baseline, listed as GHRH(1-29)NH2 synthetic analog): 46.64 kg
Fat free mass (kg): mean (SD) ([2]; anthropometry, Day 28): 46.20 (9.16) kg
Fat mass (%): median ([2]; anthropometry, Day 28): 25.9%
Fat mass (kg): median ([2]; anthropometry, Day 28): 15.6 kg
Fat free mass (kg): mean (SD) ([2]; anthropometry, Day 28, listed as GHRH(1-29)NH2 synthetic analog): 46.20 kg
Fat free mass (kg): adjusted difference ([2]; anthropometry, vs placebo): 0.41 kg
Subjects with abnormal findings on physical examination: Cardiovascular (%) ([3]; Baseline): (46.2%)
Subjects with abnormal findings on physical examination: Central nervous system (%) ([3]; Baseline): (0.0%)
Subjects with abnormal findings on physical examination: Ear (%) ([3]; Baseline): (15.4%)
Subjects with abnormal findings on physical examination: Gastrointestinal (%) ([3]; Baseline): (30.8%)
Subjects with abnormal findings on physical examination: Genitourinary (%) ([3]; Baseline): (23.1%)
Subjects with abnormal findings on physical examination: Musculoskeletal (%) ([3]; Baseline): (53.8%)
Subjects with abnormal findings on physical examination: Nose and throat (%) ([3]; Baseline): (38.5%)
Subjects with abnormal findings on physical examination: Other (%) ([3]; Baseline): (23.1%)
Subjects with abnormal findings on physical examination: Respiratory (%) ([3]; Baseline): (0.0%)
Subjects with abnormal findings on physical examination: Skin (%) ([3]; Baseline): (69.2%)
Subjects with abnormal findings on physical examination: Cardiovascular (%) ([3]; Day 28): (25.0%)
Subjects with abnormal findings on physical examination: Central nervous system (%) ([3]; Day 28): (0.0%)
Subjects with abnormal findings on physical examination: Ear (%) ([3]; Day 28): (16.7%)
Subjects with abnormal findings on physical examination: Gastrointestinal (%) ([3]; Day 28): (41.7%)
Subjects with abnormal findings on physical examination: Genitourinary (%) ([3]; Day 28): (16.7%)
Subjects with abnormal findings on physical examination: Musculoskeletal (%) ([3]; Day 28): (50.0%)
Subjects with abnormal findings on physical examination: Nose and throat (%) ([3]; Day 28): (41.7%)
Subjects with abnormal findings on physical examination: Other (%) ([3]; Day 28): (41.7%)
Subjects with abnormal findings on physical examination: Respiratory (%) ([3]; Day 28): (8.3%)
Subjects with abnormal findings on physical examination: Skin (%) ([3]; Day 28): (75.0%)
R2 (60 min) ([4]; 60-min incubation in human serum): 1.55 ± 0.04
R2 (180 min) ([4]; 180-min incubation in human serum): 2.93 ± 0.87
Mean residual amount (%) ([4]; human serum, IT 0 min): 100%
